Test results from PubChem BioAssay AID1963979 (Molecular Pharmacology Branch, DTP, NCI, 2024).
pIC50: −log10 of the molar value.

Test system: 361931-004-R-J1-PDC multicell spheroid viability
Assay: Anticancer human tumor 361931-004-R-J1-PDC patient-derived colon adenocarcinoma cell line growth inhibition [PI3K]
Details: for pIC50: curve of first compound; for viability, T/C: stronger effect = lower value
In short: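 Combination activity was assessed by viability in multicellular tumor spheroids carrying HUVEC and MSC components. Agents were tested with PI3K inhibitors from a Cmax-based top dose (or 10 microM) downward in half-log increments.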

[1] = second compound 0.0316 µM, first compound 0.0316 µM
[2] = second compound 0.0316 µM, first compound 0.1 µM
[3] = second compound 0.1 µM, first compound 0.0316 µM
[4] = second compound 0.1 µM, first compound 0.1 µM
[5] = second compound 0.316 µM, first compound 0.0316 µM
[6] = second compound 0.316 µM, first compound 0.1 µM
[7] = second compound 1 µM, first compound 0.0316 µM
[8] = second compound 1 µM, first compound 0.1 µM
[9] = second compound 3.16 µM, first compound 0.0316 µM
[10] = second compound 3.16 µM, first compound 0.1 µM
[11] = second compound 10 µM, first compound 0.0316 µM
[12] = second compound 10 µM, first compound 0.1 µM
[13] = second compound 0.0316 µM, first compound 0.316 µM
[14] = second compound 0.0316 µM, first compound 1 µM
[15] = second compound 0.0316 µM, first compound 3.16 µM
[16] = second compound 0.0316 µM, first compound 10 µM
[17] = second compound 0.1 µM, first compound 0.316 µM
[18] = second compound 0.1 µM, first compound 1 µM
[19] = second compound 0.1 µM, first compound 3.16 µM
[20] = second compound 0.1 µM, first compound 10 µM
[21] = second compound 0.316 µM, first compound 0.316 µM
[22] = second compound 0.316 µM, first compound 1 µM
[23] = second compound 0.316 µM, first compound 3.16 µM
[24] = second compound 0.316 µM, first compound 10 µM
[25] = second compound 1 µM, first compound 0.316 µM
[26] = second compound 1 µM, first compound 1 µM
[27] = second compound 1 µM, first compound 3.16 µM
[28] = second compound 1 µM, first compound 10 µM
[29] = second compound 3.16 µM, first compound 0.316 µM
[30] = second compound 3.16 µM, first compound 1 µM
[31] = second compound 3.16 µM, first compound 3.16 µM
[32] = second compound 3.16 µM, first compound 10 µM
[33] = second compound 10 µM, first compound 0.316 µM
[34] = second compound 10 µM, first compound 1 µM
[35] = second compound 10 µM, first compound 3.16 µM
[36] = second compound 10 µM, first compound 10 µM
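Also: spheroids exposed to agents for seven days before readout.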

Structure (SMILES): CC(=O)c1c(C)c2cnc(Nc3ccc(N4CCNCC4)cn3)nc2n(C2CCCC2)c1=O + CC(Nc1ncnc2nc[nH]c12)c1cc2cccc(Cl)c2c(=O)n1-c1ccccc1
- pIC50 (second compound 0.0316 µM): < 7.00
- pIC50 (second compound 0.1 µM): < 7.00
- pIC50 (second compound 0.316 µM): < 7.00
- pIC50 (second compound 1 µM): < 7.00
- pIC50 (second compound 3.16 µM): < 7.00
- pIC50 (second compound 10 µM): < 7.00
- viability, T/C (second compound 0.0316 µM, first compound 0.000316 µM): 98.3%
- viability, T/C (second compound 0.0316 µM, first compound 0.001 µM): 103%
- viability, T/C (second compound 0.0316 µM, first compound 0.00316 µM): 97.5%
- viability, T/C (second compound 0.0316 µM, first compound 0.01 µM): 97.2%
- viability, T/C [1]: 102%
- viability, T/C [2]: 93.2%
- viability, T/C (second compound 0.1 µM, first compound 0.000316 µM): 103%
- viability, T/C (second compound 0.1 µM, first compound 0.001 µM): 103%
- viability, T/C (second compound 0.1 µM, first compound 0.00316 µM): 98.4%
- viability, T/C (second compound 0.1 µM, first compound 0.01 µM): 104%
- viability, T/C [3]: 99.5%
- viability, T/C [4]: 98.4%
- viability, T/C (second compound 0.316 µM, first compound 0.000316 µM): 108%
- viability, T/C (second compound 0.316 µM, first compound 0.001 µM): 97.7%
- viability, T/C (second compound 0.316 µM, first compound 0.00316 µM): 105%
- viability, T/C (second compound 0.316 µM, first compound 0.01 µM): 97.9%
- viability, T/C [5]: 103%
- viability, T/C [6]: 97.5%
- viability, T/C (second compound 1 µM, first compound 0.000316 µM): 101%
- viability, T/C (second compound 1 µM, first compound 0.001 µM): 100%
- viability, T/C (second compound 1 µM, first compound 0.00316 µM): 101%
- viability, T/C (second compound 1 µM, first compound 0.01 µM): 105%
- viability, T/C [7]: 108%
- viability, T/C [8]: 89%
- viability, T/C (second compound 3.16 µM, first compound 0.000316 µM): 96.2%
- viability, T/C (second compound 3.16 µM, first compound 0.001 µM): 100%
- viability, T/C (second compound 3.16 µM, first compound 0.00316 µM): 97.2%
- viability, T/C (second compound 3.16 µM, first compound 0.01 µM): 93.7%
- viability, T/C [9]: 100%
- viability, T/C [10]: 81.3%
- viability, T/C (second compound 10 µM, first compound 0.000316 µM): 92.7%
- viability, T/C (second compound 10 µM, first compound 0.001 µM): 107%
- viability, T/C (second compound 10 µM, first compound 0.00316 µM): 96.5%
- viability, T/C (second compound 10 µM, first compound 0.01 µM): 94.1%
- viability, T/C [11]: 101%
- viability, T/C [12]: 80.5%

Structure (SMILES): CCCS(=O)(=O)Nc1ccc(F)c(C(=O)c2c[nH]c3ncc(-c4ccc(Cl)cc4)cc23)c1F + CC(Nc1ncnc2nc[nH]c12)c1cc2cccc(Cl)c2c(=O)n1-c1ccccc1
- pIC50 (second compound 0.0316 µM): 5.28
- pIC50 (second compound 0.1 µM): 5.28
- pIC50 (second compound 0.316 µM): 5.25
- pIC50 (second compound 1 µM): 5.28
- pIC50 (second compound 3.16 µM): 5.26
- pIC50 (second compound 10 µM): 5.31
- viability, T/C [1]: 111%
- viability, T/C [2]: 97.4%
- viability, T/C [13]: 96.4%
- viability, T/C [14]: 97.3%
- viability, T/C [15]: 84.7%
- viability, T/C [16]: 7.53%
- viability, T/C [3]: 108%
- viability, T/C [4]: 101%
- viability, T/C [17]: 94.3%
- viability, T/C [18]: 89.2%
- viability, T/C [19]: 84.9%
- viability, T/C [20]: 6.96%
- viability, T/C [5]: 105%
- viability, T/C [6]: 101%
- viability, T/C [21]: 96.1%
- viability, T/C [22]: 90.9%
- viability, T/C [23]: 92.1%
- viability, T/C [24]: 6.91%
- viability, T/C [7]: 100%
- viability, T/C [8]: 99.7%
- viability, T/C [25]: 94.9%
- viability, T/C [26]: 96.8%
- viability, T/C [27]: 83.5%
- viability, T/C [28]: 7.4%
- viability, T/C [9]: 98.8%
- viability, T/C [10]: 102%
- viability, T/C [29]: 103%
- viability, T/C [30]: 95.5%
- viability, T/C [31]: 90.1%
- viability, T/C [32]: 7.12%
- viability, T/C [11]: 99.3%
- viability, T/C [12]: 101%
- viability, T/C [33]: 98.1%
- viability, T/C [34]: 88.3%
- viability, T/C [35]: 78.1%
- viability, T/C [36]: 7.3%

Structure (SMILES): CNC(=O)c1ccc(N2C(=S)N(c3ccc(C#N)c(C(F)(F)F)c3)C(=O)C2(C)C)cc1F + CC(Nc1ncnc2nc[nH]c12)c1cc2cccc(Cl)c2c(=O)n1-c1ccccc1
- pIC50 (second compound 0.0316 µM): < 5.00
- pIC50 (second compound 0.1 µM): < 5.00
- pIC50 (second compound 0.316 µM): < 5.00
- pIC50 (second compound 1 µM): < 5.00
- pIC50 (second compound 3.16 µM): < 5.00
- pIC50 (second compound 10 µM): < 5.00
- viability, T/C [1]: 97.8%
- viability, T/C [2]: 103%
- viability, T/C [13]: 97.7%
- viability, T/C [14]: 96.6%
- viability, T/C [15]: 103%
- viability, T/C [16]: 85.7%
- viability, T/C [3]: 110%
- viability, T/C [4]: 102%
- viability, T/C [17]: 97.8%
- viability, T/C [18]: 93.7%
- viability, T/C [19]: 106%
- viability, T/C [20]: 103%
- viability, T/C [5]: 102%
- viability, T/C [6]: 93%
- viability, T/C [21]: 97.9%
- viability, T/C [22]: 105%
- viability, T/C [23]: 101%
- viability, T/C [24]: 97.3%
- viability, T/C [7]: 101%
- viability, T/C [8]: 106%
- viability, T/C [25]: 99.4%
- viability, T/C [26]: 104%
- viability, T/C [27]: 106%
- viability, T/C [28]: 97.2%
- viability, T/C [9]: 101%
- viability, T/C [10]: 109%
- viability, T/C [29]: 97.1%
- viability, T/C [30]: 101%
- viability, T/C [31]: 104%
- viability, T/C [32]: 93.4%
- viability, T/C [11]: 107%
- viability, T/C [12]: 105%
- viability, T/C [33]: 104%
- viability, T/C [34]: 94.2%
- viability, T/C [35]: 112%
- viability, T/C [36]: 96.3%

Structure (SMILES): Cn1cnc2c(F)c(Nc3ccc(Br)cc3Cl)c(C(=O)NOCCO)cc21 + CC(Nc1ncnc2nc[nH]c12)c1cc2cccc(Cl)c2c(=O)n1-c1ccccc1
- pIC50 (second compound 0.0316 µM): < 5.52
- pIC50 (second compound 0.1 µM): < 5.52
- pIC50 (second compound 0.316 µM): < 5.52
- pIC50 (second compound 1 µM): < 5.52
- pIC50 (second compound 3.16 µM): 5.54
- pIC50 (second compound 10 µM): 5.78
- viability, T/C (second compound 0.0316 µM, first compound 0.00949 µM): 98.1%
- viability, T/C (second compound 0.0316 µM, first compound 0.03 µM): 95.3%
- viability, T/C (second compound 0.0316 µM, first compound 0.0949 µM): 94%
- viability, T/C (second compound 0.0316 µM, first compound 0.3 µM): 87.4%
- viability, T/C (second compound 0.0316 µM, first compound 0.949 µM): 82%
- viability, T/C (second compound 0.0316 µM, first compound 3 µM): 59.1%
- viability, T/C (second compound 0.1 µM, first compound 0.00949 µM): 109%
- viability, T/C (second compound 0.1 µM, first compound 0.03 µM): 96.2%
- viability, T/C (second compound 0.1 µM, first compound 0.0949 µM): 94.2%
- viability, T/C (second compound 0.1 µM, first compound 0.3 µM): 82.9%
- viability, T/C (second compound 0.1 µM, first compound 0.949 µM): 87.4%
- viability, T/C (second compound 0.1 µM, first compound 3 µM): 61.7%
- viability, T/C (second compound 0.316 µM, first compound 0.00949 µM): 105%
- viability, T/C (second compound 0.316 µM, first compound 0.03 µM): 102%
- viability, T/C (second compound 0.316 µM, first compound 0.0949 µM): 88.8%
- viability, T/C (second compound 0.316 µM, first compound 0.3 µM): 85.8%
- viability, T/C (second compound 0.316 µM, first compound 0.949 µM): 82.9%
- viability, T/C (second compound 0.316 µM, first compound 3 µM): 58.1%
- viability, T/C (second compound 1 µM, first compound 0.00949 µM): 97.9%
- viability, T/C (second compound 1 µM, first compound 0.03 µM): 94.4%
- viability, T/C (second compound 1 µM, first compound 0.0949 µM): 93.3%
- viability, T/C (second compound 1 µM, first compound 0.3 µM): 79.5%
- viability, T/C (second compound 1 µM, first compound 0.949 µM): 81.4%
- viability, T/C (second compound 1 µM, first compound 3 µM): 59.7%
- viability, T/C (second compound 3.16 µM, first compound 0.00949 µM): 92.8%
- viability, T/C (second compound 3.16 µM, first compound 0.03 µM): 96.2%
- viability, T/C (second compound 3.16 µM, first compound 0.0949 µM): 90.9%
- viability, T/C (second compound 3.16 µM, first compound 0.3 µM): 91.3%
- viability, T/C (second compound 3.16 µM, first compound 0.949 µM): 77%
- viability, T/C (second compound 3.16 µM, first compound 3 µM): 48.9%
- viability, T/C (second compound 10 µM, first compound 0.00949 µM): 99.1%
- viability, T/C (second compound 10 µM, first compound 0.03 µM): 92.4%
- viability, T/C (second compound 10 µM, first compound 0.0949 µM): 86.9%
- viability, T/C (second compound 10 µM, first compound 0.3 µM): 85.2%
- viability, T/C (second compound 10 µM, first compound 0.949 µM): 66.5%
- viability, T/C (second compound 10 µM, first compound 3 µM): 33%
